Test results reported in PMC7752915 (Cell Discovery, 2020).
Structures can show the parent of a compound that is named as a salt. Where two headings read alike, the source gives them in different places.

What was measured:
SARS-CoV-2 [1] = assay: time-of-addition assay (full-time, entry, post-entry treatment) in Vero E6 cells; type: cell-based
SARS-CoV-2 [2] = type: cell-based; settings: Vero E6 cells, MOI 0.05, 24 h p.i., viral titer in supernatant
Vero E6 cells = assay: cytotoxicity in Vero E6 cells, CCK-8 assay; settings: read-out: half cytotoxic concentration (CC50); Vero E6 cells, CCK-8 assay, 24 h
[3] = cited from earlier work
SARS-CoV-2 [4] = settings: for IC50: read-out: half maximal inhibitory concentration (IC50) of SARS-CoV-2 replication, viral RNA copy number in supernatant
SARS-CoV-2 [5] = assay: separate or combined application of CQ and CCB in Vero E6 cells, qRT-PCR and NP immunofluorescence; type: cell-based; settings: MOI 0.05, 24 h p.i.
[6] = test system: COVID-19 patients with hypertension; assay: retrospective clinical investigation of hospitalized COVID-19 patients with hypertension as the only comorbidity; type: in vivo, human; settings: for Admission to ICU / Invasive ventilation: number (%) of patients
SARS-CoV-2 [7] = assay: in vitro
SARS-CoV-2 [8] = assay: microbe, parasite or virus in culture; settings: Severe acute respiratory syndrome coronavirus 2, Vero C1008, 24 h, read-out: half maximal inhibitory concentration (IC50) of SARS-CoV-2 replication
[9] = cytotoxicity in Vero E6 cells, CCK-8 assay; settings: African green monkey
in vitro = settings: African green monkey
[10] = Vero E6 cells, MOI 0.05, 24 h p.i.
[11] = Vero E6 cells, MOI 0.05, 24 h p.i., serial concentrations
[12] = Supplementary Table S2, by treatment regimen
[13] = Amlodipine n = 19, listed as Amlodipine

In the case of `COC(=O)C1=C(C)NC(C)=C(C(=O)O[C@@H]2CCCN(Cc3ccccc3)C2)[C@@H]1c1cccc([N+](=O)[O-])c1.Cl` [benidipine HCI], the “stage of virus infection inhibited” value (SARS-CoV-2 [1]; Vero E6 cells, MOI 0.05, 24 h p.i., qRT-PCR, western blot, immunofluorescence) is reported as “mainly inhibit virus infection at a stage after virus entry”, the “anti-SARS-CoV-2 activity by plaque assay (in words)” value (SARS-CoV-2 [2]) is reported as “confirmed by plaque assay” and the CC50 (Vero E6 cells) is reported as > 100 µM. The Cmax ([3]; volunteers, 8 mg of benidipine HCI) was ~ 4 ng/mL, the “selective index (SI = CC50/IC50)” value (SARS-CoV-2 [4]; Vero E6 cells) was > 26.25 and the IC50 (SARS-CoV-2 [4]; [10]) was 3.81 µM. For the same molecule, the “effect on virus replication, separate or combined application” value (SARS-CoV-2 [5]) was “distinct reduction in virus replication”.

In the case of `CCCCC(=O)N(Cc1ccc(-c2ccccc2-c2nnn[nH]2)cc1)[C@H](C(=O)O)C(C)C` [valsartan], the “inhibition of SARS-CoV-2 replication (in words)” value (“inhibition” for short) (SARS-CoV-2 [4]; [11]) is reported as “did not show any significant inhibition effects”.

With `CCCCc1nc(Cl)c(CO)n1Cc1ccc(-c2ccccc2-c2nn[nH]n2)cc1` [losartan potassium] the “inhibition” value (SARS-CoV-2 [4]; [11]) was “did not show any significant inhibition effects”.

For `CC(=O)OCOC(=O)CN(CC(=O)OCOC(C)=O)c1ccccc1OCCOc1ccccc1N(CC(=O)OCOC(C)=O)CC(=O)OCOC(C)=O` [BAPTA-AM, 1,2-bis(2-aminophenoxy)ethane-N,N,N′,N′-tetraacetic acid tetrakis(acetoxymethyl ester)], the CC50 (Vero E6 cells) was 81.3 µM, the “selective index (SI = CC50/IC50)” value (SARS-CoV-2 [4]; Vero E6 cells) was 5.83 and the “inhibition” value (SARS-CoV-2 [4]; [11]) was “significantly inhibited virus replication in a concentration-dependent manner”. It also gave an IC50 (SARS-CoV-2 [4]; [10]) of 13.9 µM.

With `CCOC(=O)C1=C(COCCN)NC(C)=C(C(=O)OC)C1c1ccccc1Cl` (stereo not shown) [amlodipine besylate] the “Fatal, n (%)” value [6, 12] was 0 n (%), the “Survival, n (%)” value [6, 12] was 19 (100) n (%) and the “Fatal (outcome)” value ([6]; Table 1, number (%) of patients, Amlodipine n = 19) was 0. For the same molecule, the “Admission to ICU” value ([6]; Amlodipine n = 19) was “none”, the Invasive ventilation ([6]; Amlodipine n = 19) was “none” and the “Admission to ICU” value [6, 13] was 0. For the same molecule, the Invasive ventilation [6, 13] was 0, the “anti-SARS-CoV-2 activity by plaque assay (in words)” value (SARS-CoV-2 [2]) was “confirmed by plaque assay” and the Cmax ([3]; volunteers, 5 mg of amlodipine besylate) was ~ 4 ng/mL.

In the case of `NCCOB(c1ccccc1)c1ccccc1` [2ABP, 2-aminoethyl diphenylborinate], the selectivity ratio (SARS-CoV-2 [7]) is reported as > 8.26, the IC50 (SARS-CoV-2 [8]) is reported as 24.2 µM and the “stage of virus infection inhibited” value (SARS-CoV-2 [1]) is reported as “mainly inhibit virus infection at a stage after virus entry”. The CC50 at 24 h [9] was > 200 µM and the “inhibition” value (SARS-CoV-2 [4]) was “significantly inhibited virus replication in a concentration-dependent manner”.

In the case of `CCN(CC)CCCC(C)Nc1ccnc2cc(Cl)ccc12` (stereo not shown) [CQ, chloroquine], the “effect on virus replication, separate or combined application” value (SARS-CoV-2 [5]) is reported as “distinct reduction in virus replication”.

For `COCCOC(=O)C1=C(C)NC(C)=C(C(=O)OC/C=C/c2ccccc2)C1c1cccc([N+](=O)[O-])c1` (stereo not shown) [cilnidipine], the selectivity ratio at 24 h (SARS-CoV-2 [7]) is listed as > 8.64, the IC50 (SARS-CoV-2 [8]) is listed as 11.6 µM and the Cmax ([3]; human, in vivo, 20 mg) is listed as 16.5 ng/mL. For the same molecule, the CC50 at 24 h (in vitro) was > 100 µM.

In the case of `C[C@H](N[C@@H](CCc1ccccc1)C(=O)O)C(=O)N1CCC[C@H]1C(=O)O.O.O` [enalaprilat dehydrate], the “inhibition” value (SARS-CoV-2 [4]; [11]) is reported as “did not show any significant inhibition effects”.

In the case of `CCOC(=O)[C@H](CCc1ccccc1)N[C@@H](C)C(=O)N1CCC[C@H]1C(=O)O` [enalapril maleate], the “inhibition” value (SARS-CoV-2 [4]; [11]) is reported as “did not show any significant inhibition effects”.

In the case of `COC(=O)C1=C(C)NC(C)=C(C(=O)OC)C1c1ccccc1[N+](=O)[O-]` [nifedipine], the “case fatality rate (CFR)” value ([6]; COVID-19 patients with hypertension as only comorbidity, by antihypertensive drug received) is reported as 14.3% and the “Fatal, n (%)” value [6, 12] is reported as 2 (14.3) n (%).

With `COC(=O)C1=C(C)NC(C)=C(C(=O)OCCN(C)Cc2ccccc2)C1c1cccc([N+](=O)[O-])c1` (stereo not shown) [nicardipine HCI, nicardipine HCl] the selectivity ratio at 24 h (SARS-CoV-2 [7]) was > 7.51, the IC50 (SARS-CoV-2 [8]) was 13.3 µM and the CC50 at 24 h [9] was > 100 µM. For the same molecule, the Cmax ([3]; volunteers, 60 mg nicardipine hydrochloride) was 58.4 ng/mL.
